Results reported in US11505547B2, “Compounds” (STEP PHARMA S.A.S., priority 2017, dated 2022).

Tests used:
[1] = target: T1, human CTPS1 (Homo sapiens, UniProt P17812); assay: Human CTPS1 enzyme inhibition, ADP-Glo Max assay; format: biochemical; conditions: human full length CTPS1, read-out: CTPS1 (Human CTPS1 Enzyme Inhibition data grouped by potency range, IC50)
T1 construct: purchased Proteros biostructures GmbH
T1 sequence (P17812 1-591): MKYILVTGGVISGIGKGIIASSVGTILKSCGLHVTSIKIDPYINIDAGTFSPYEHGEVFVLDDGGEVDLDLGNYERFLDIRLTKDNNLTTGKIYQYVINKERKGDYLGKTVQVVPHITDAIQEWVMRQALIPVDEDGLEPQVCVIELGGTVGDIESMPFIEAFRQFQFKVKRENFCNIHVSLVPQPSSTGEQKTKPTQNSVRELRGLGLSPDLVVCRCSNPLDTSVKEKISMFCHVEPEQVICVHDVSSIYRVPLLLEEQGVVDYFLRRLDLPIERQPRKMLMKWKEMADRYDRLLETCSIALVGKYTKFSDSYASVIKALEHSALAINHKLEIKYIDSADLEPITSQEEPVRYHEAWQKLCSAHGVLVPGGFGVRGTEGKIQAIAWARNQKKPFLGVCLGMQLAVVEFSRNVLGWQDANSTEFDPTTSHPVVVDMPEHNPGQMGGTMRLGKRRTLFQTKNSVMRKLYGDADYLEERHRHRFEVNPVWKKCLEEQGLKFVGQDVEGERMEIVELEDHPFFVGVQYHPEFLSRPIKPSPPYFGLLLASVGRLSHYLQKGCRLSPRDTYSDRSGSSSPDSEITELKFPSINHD
Procedure, shortened: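 Full-length C-terminal FLAG-His-tagged protein in 50 mM Tris pH 8.0, 10 mM MgCl2, 0.01% Tween-20 and 2 mM L-cysteine, preincubated with compound for 10 min at 25 °C. The substrate mix held ATP 0.31 mM, GTP 0.034 mM, UTP 0.48 mM and L-glutamine 0.186 mM, and the reaction ran within its linear phase. ADP was read by ADP-Glo Max luminescence; IC50 from the % inhibition curve.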

[2] = target: T1, human CTPS1; assay: RapidFire/MS-based enzyme selectivity assay, human CTPS1; format: biochemical; conditions: RapidFire/MS IC50s, human CTPS1 versus CTPS2
Procedure: Biological Example 2—RapidFire/MS-Based Enzyme Selectivity Assays
Human CTPS1 Versus CTPS2 Selectivity Assessment by RapidFire/MS Analysis.
The enzyme inhibitory activities against each target isoform of interest were determined for the compounds of the invention using an optimised RapidFire high-throughput mass spectrometry (RF/MS) assay format. RF/MS assays for both human CTPS1 and CTPS2 were performed in assay buffer consisting of 50 mM HEPES (Merck), 20 mM MgCl2, 5 mM KCl, 1 mM DTT, 0.01% Tween-20, pH to 8.0 accordingly. All reagents were from Sigma-Aldrich unless specified otherwise. Human full-length active C-terminal FLAG-His-tag CTPS1 (UniProtKB-P17812, CTPS[1-591]-[…]) was obtained from Proteros biostructures GmbH. Human full length active C-terminal FLAG-His-Avi tagged CTPS2 (UniProtKB-Q9NRF8, CTPS2 [1-586]-[…]) was obtained from Harker Bio.
Human CTPS (1 or 2) protein was prepared in 1× assay buffer to the final working protein concentration required for the reaction. A 2 uL volume per well of 2×CTPS (1 or 2) protein was mixed with 40 nL of compound using acoustic (ECHO) delivery and incubated for 10 minutes at 25° C. Each isoform enzymatic reaction was subsequently initiated by addition of 2 uL per well of a 2× substrate mix in assay buffer. For hCTPS1: ATP (0.3 mM), UTP (0.2 mM), GTP (0.07 mM) and L-glutamine (0.1 mM). For hCTPS2: ATP (0.1 mM), UTP (0.04 mM), GTP (0.03 mM) and L-glutamine (0.1 mM). Each mixture was incubated for an appropriate amount of time per isoform within the determined linear phase of the reaction at 25° C. A 60 uL volume of stop solution (1% formic acid with 0.5 uM ^13C9-^15N3-CTP in H2O) was added and the plate immediately heat-sealed and centrifuged for 10 minutes at 4,000 rpm. Following centrifugation, plates were loaded onto the Agilent RapidFire microfluidic solid phase extraction system coupled to an API4000 triple quadrupole mass spectrometer (RF/MS) for analysis.
In all cases, the enzyme converts UTP to CTP. […] Readout for data analysis was calculated as the ratio between the peak area of the product CTP and the internal standard ^13C9-^15N3-CTP. […]
(R=ratio/readout, P=product signal area, IS=internal standard signal area) […]
(I=Inhibition, Rneg=median of negative control readout values, Rpos=median of positive control readout values, Rsample=sample readout value)
Percentage inhibition was then plotted against compound concentration, and the 50% inhibitory concentration ([…]) was determined from the resultant concentration-response curve.
Fold selectivity between CTPS1 and CTPS2 was subsequently calculated according to the following equation: […]

For `CCOc1cncc(-c2ccc(C(=O)NC(CC)c3csc(NS(=O)(=O)C4CC4)n3)c(F)c2)n1` (single isomer, unassigned) [Example R71, N-(1-(2-(cyclopropanesulfonamido)thiazol-4-yl)propyl)-4-(6-ethoxypyrazin-2-yl)-2-fluorobenzamide], the IC50 [1] was less than 100 nM and the “Selectivity (fold selectivity between CTPS1 and CTPS2)” value [2] was “+++ (>60 fold (+++))”.
For `CCOc1cncc(-c2ccc(C(=O)NC(C)(C)c3csc(NS(=O)(=O)C4CC4)n3)c(F)c2)n1` [Example R6, N-(2-(2-(cyclopropanesulfonamido)thiazol-4-yl)propan-2-yl)-4-(6-ethoxypyrazin-2-yl)-2-fluorobenzamide], the IC50 [1] was less than 100 nM and the “Selectivity (fold selectivity between CTPS1 and CTPS2)” value [2] was “++ (>30-60 fold (++))”.
In the case of `CCOc1cncc(-c2ccc(C(=O)NC(CCOC)c3csc(NS(=O)(=O)C4CC4)n3)c(F)c2)n1` (single isomer, unassigned) [Example R92, N-(1-(2-(cyclopropanesulfonamido)thiazol-4-yl)-3-methoxypropyl)-4-(6-ethoxypyrazin-2-yl)-2-fluorobenzamide], the IC50 [1] is reported as less than 100 nM and the “Selectivity (fold selectivity between CTPS1 and CTPS2)” value [2] is reported as “+++ (>60 fold (+++))”.
